Reference: ChEMBL document CHEMBL1122565, “Quantitative structure-activity relationships of 6-anilinouracils as inhibitors of Bacillus subtilis DNA polymerase III” (J Med Chem, 1984)

Molecular target: DNA polymerase III PolC-type (Bacillus subtilis (strain 168), UniProt P13267)
Experiment: Inhibition constant against Bacillus subtilis DNA polymerase III (wild type).
Conditions: read-out: Log 1/Ki (converted)

Chain of DNA polymerase III PolC-type (P13267 whole entry): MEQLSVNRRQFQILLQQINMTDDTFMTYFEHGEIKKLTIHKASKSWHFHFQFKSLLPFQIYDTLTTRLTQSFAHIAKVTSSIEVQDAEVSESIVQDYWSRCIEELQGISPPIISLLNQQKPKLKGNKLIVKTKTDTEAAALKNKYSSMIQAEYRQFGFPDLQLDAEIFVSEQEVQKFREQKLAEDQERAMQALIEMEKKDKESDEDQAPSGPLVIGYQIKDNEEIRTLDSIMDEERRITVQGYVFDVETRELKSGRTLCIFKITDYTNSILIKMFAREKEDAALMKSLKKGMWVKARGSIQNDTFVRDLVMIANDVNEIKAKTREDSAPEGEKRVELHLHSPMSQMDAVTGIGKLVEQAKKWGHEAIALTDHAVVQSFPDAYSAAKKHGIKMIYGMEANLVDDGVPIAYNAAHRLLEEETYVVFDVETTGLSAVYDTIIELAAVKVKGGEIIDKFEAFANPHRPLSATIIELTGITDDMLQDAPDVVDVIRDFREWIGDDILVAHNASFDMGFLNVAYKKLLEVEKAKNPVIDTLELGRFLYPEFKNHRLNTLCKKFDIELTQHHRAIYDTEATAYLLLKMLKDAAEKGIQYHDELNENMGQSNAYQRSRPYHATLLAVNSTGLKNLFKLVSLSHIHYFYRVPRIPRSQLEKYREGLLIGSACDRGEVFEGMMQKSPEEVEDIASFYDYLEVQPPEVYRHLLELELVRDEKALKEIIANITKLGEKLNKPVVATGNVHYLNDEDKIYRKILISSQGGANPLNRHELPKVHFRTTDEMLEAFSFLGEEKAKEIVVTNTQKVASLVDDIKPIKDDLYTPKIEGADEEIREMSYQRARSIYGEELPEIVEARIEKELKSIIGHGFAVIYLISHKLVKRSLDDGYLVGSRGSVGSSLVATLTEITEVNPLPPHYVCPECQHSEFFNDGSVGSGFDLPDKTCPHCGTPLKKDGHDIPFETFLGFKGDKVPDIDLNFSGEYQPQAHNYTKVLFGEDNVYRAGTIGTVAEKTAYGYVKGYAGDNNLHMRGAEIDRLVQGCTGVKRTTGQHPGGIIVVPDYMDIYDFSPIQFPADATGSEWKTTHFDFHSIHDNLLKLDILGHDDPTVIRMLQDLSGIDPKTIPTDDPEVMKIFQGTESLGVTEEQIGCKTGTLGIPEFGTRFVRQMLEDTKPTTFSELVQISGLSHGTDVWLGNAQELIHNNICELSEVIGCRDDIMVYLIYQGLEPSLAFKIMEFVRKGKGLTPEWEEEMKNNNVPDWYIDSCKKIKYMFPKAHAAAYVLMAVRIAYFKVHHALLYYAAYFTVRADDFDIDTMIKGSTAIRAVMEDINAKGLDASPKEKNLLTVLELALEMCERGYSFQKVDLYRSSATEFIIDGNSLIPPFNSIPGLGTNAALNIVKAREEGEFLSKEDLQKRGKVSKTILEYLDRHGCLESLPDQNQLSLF

Structure (SMILES)	Ki [µM]
CCCc1ccc(Nc2cc(O)nc(O)n2)cc1C	97.9
CCc1ccc(Nc2cc(=O)[nH]c(=O)[nH]2)cc1C	19
CCc1cc(Nc2cc(=O)[nH]c(=O)[nH]2)ccc1C	0.19
CCCCc1cccc(Nc2cc(O)nc(O)n2)c1	695
CCCc1cccc(Nc2cc(O)nc(O)n2)c1	17
CCCCc1ccc(Nc2cc(O)nc(O)n2)cc1C	692

Molecular target: DNA polymerase III (Bacillus subtilis)
Experiment: Inhibition constant against Bacillus subtilis azp-12 DNA polymerase III (mutant enzyme).
Conditions: not given

Structure (SMILES)	Log 1/Ki
CCCc1ccc(Nc2cc(O)nc(O)n2)cc1C	4.86
Cc1ccc(Nc2cc(O)nc(O)n2)cc1I	6.553
Cc1cccc(Nc2cc(O)nc(O)n2)c1	3.75
COc1ccc(Nc2cc(O)nc(O)n2)cc1	3.921
OCc1cccc(Nc2cc(O)nc(O)n2)c1	2.29
CCCc1ccc(Nc2cc(O)nc(O)n2)cc1	4.278
CC(=O)Nc1cc(Nc2cc(O)nc(O)n2)ccc1C	2.726
Cc1ccc(Nc2cc(O)nc(O)n2)cc1C	5.456
Nc1ccc(Nc2cc(O)nc(O)n2)cc1	2.409
Oc1cc(Nc2cccc(Cl)c2)nc(O)n1	4.38
CCCCc1ccc(Nc2cc(O)nc(O)n2)cc1C	3.879
Cc1cc(Nc2cc(O)nc(O)n2)ccc1N	3.801
Oc1cc(Nc2cccc(Br)c2)nc(O)n1	4.66
CC(=O)Nc1ccc(Nc2cc(O)nc(O)n2)cc1C	2.81
